This passage reports IC50 results from patent US20240376100A1 (Redona Therapeutics, Inc., priority 2021, published 2024).

Structures are written as SMILES. Counter-ions that a name gives are not always drawn. Bounds are passed on as bounds.

The target of the assay is PAPD5 enzyme (Homo sapiens, UniProt Q8NDF8). In words: PAPD5 assay (AMP incorporation onto 3'-terminus of RNA substrate, fluorescence quench). The assay is classed as biochemical. The following applies: PAPD5 protein 0.3 nM, ATP 50 μM, 30 minutes preincubation, room temperature; read-out: Potency PAPD5 IC50. The protocol: The purpose of the PAPD5 assay is to determine compound potency against PAPD5 enzyme through the measurement of IC50. Compound inhibition is measured as a function of AMP incorporation onto the 3′-terminus of an RNA substrate in the presence of active PAPD5, ATP, and inhibitor. The PAPD5 assay was done in a black, non-binding, 384 well plate (Corning #3575). All steps were performed at room temperature. For a typical assay, a 40 ul aliquot of assay buffer (50 mM HEPES pH 7.3, 20 mM KCl, 10 mM MgCl2, 10 mMM DTT, 0.01% Triton X-100, 40 U/ml RNAsin (Promega)) containing PAPD5 protein (final 10 concentration: 0.3 nM) and ATP (final concentration 50 μM) was added to each well. Next, 1 ul of compound in 100% DMSO is transferred from a compound dilution plate in which the compound is serially diluted. The plate was placed on a plate shaker for 30 seconds to produce mixing, then incubated for 30 minutes. Next, 10 ul of a 5× mix of RNA substrate (5′-fluorescein-AUAGAG-3′ (IDT)) and a DNA oligonucleotide that is complementary to the AMP modified RNA product (5′-TCTCTATT-3′-TAMRA, wherein the first two nucleotides are locked nucleic acids (IDT)) was added (final concentrations: 5 nM and 20 nM, respectively). The plate was placed on a plate shaker for 30 seconds to produce mixing then immediately placed in a Biotek Cytation 5 plate reader, and the time-dependent decrease in fluorescein fluorescence resulting from annealing of the TAMRA labeled quenching probe was recorded, using the kinetics mode of the reader (typical run time is 90 minutes). Reaction rates were obtained using linear fits to the early portion of progress curves. IC50 values were calculated using a four-parameter fit with 100% enzyme activity determined from the DMSO control and 0% activity from control samples lacking UTP.
Chain of PAPD5 enzyme (Q8NDF8 whole entry): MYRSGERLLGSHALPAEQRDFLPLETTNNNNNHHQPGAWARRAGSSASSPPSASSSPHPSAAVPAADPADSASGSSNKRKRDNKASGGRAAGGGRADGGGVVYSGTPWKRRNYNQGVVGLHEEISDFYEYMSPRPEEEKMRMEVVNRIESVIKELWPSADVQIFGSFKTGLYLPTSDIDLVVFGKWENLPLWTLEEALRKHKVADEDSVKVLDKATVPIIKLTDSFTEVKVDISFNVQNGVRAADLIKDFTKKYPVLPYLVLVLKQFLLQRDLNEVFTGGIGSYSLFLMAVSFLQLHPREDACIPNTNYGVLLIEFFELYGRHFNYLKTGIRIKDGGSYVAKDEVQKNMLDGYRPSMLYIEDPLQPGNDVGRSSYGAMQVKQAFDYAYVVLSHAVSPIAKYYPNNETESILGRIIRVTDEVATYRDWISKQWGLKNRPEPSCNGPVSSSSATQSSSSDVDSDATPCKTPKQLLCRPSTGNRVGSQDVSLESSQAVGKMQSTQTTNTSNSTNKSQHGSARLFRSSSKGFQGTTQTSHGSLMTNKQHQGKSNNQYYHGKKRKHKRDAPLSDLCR
“+” represents an IC50 value that is greater than 50 PM; “++” represents an IC50 value that is greater than 10 μM and equal to or less than 50 μM; “+++” represents an IC50 value that is greater than 1 μM and equal to or less than 10 μM; and “++++” represents an IC50 value that is equal to or less than 1 μM.
Regarding `Cc1cc(N)ncc1-n1cc(C(=O)O)c(=O)c2cc(Cl)c(-n3ccc(N(C)C)n3)nc21` [Example 162, 1-(6-amino-4-methylpyridin-3-yl)-6-chloro-7-(3-(dimethylamino)-1H-pyrazol-1-yl)-4-oxo-1,4-dihydro-1,8-naphthyridine-3-carboxylic acid], the IC50 (in general, the concentration that inhibits the measured activity by half) was ≤ 1000 nM. Consider `Cc1cc(N(C)C)ncc1-n1cc(C(=O)O)c(=O)c2cc(F)c(N3Cc4cccnc4C3)cc21` [Example 86, 7-(5,7-dihydro-6H-pyrrolo[3,4-b]pyridin-6-yl)-1-(6-(dimethylamino)-4-methylpyridin-3-yl)-6-fluoro-4-oxo-1,4-dihydroquinoline-3-carboxylic acid], for which the IC50 is ≤ 1000 nM. In the case of `COc1ccc(-n2cc(C(=O)O)c(=O)c3cc(C#N)c(N4Cc5cccnc5C4)cc32)cn1` [Example 55, 6-cyano-7-(5,7-dihydro-6H-pyrrolo[3,4-b]pyridin-6-yl)-1-(6-methoxypyridin-3-yl)-4-oxo-1,4-dihydroquinoline-3-carboxylic acid], the IC50 is ≤ 1000 nM. To `Cc1cc(N)ncc1-n1cc(C(=O)O)c(=O)c2cc(Cl)c(N3CCc4cnccc4C3)nc21` [Example 197, 1-(6-amino-4-methylpyridin-3-yl)-6-chloro-7-(3,4-dihydro-2,6-naphthyridin-2(1H)-yl)-4-oxo-1,4-dihydro-1,8-naphthyridine-3-carboxylic acid] belongs ≤ 1000 nM; to `Cc1cc(NC(=O)OC(C)(C)C)ncc1-n1cc(C(=O)O)c(=O)c2cc(Cl)c(N3Cc4ccncc4C3)nc21` [Example 167, 1-(6-((tert-butoxycarbonyl)amino)-4-methylpyridin-3-yl)-6-chloro-7-(1,3-dihydro-2H-pyrrolo[3,4-c]pyridin-2-yl)-4-oxo-1,4-dihydro-1,8-naphthyridine-3-carboxylic acid], ≤ 1000 nM.

As for `N#Cc1cc2c(=O)c(C(=O)O)cn(CC3CCCC3)c2nc1N1Cc2cccnc2C1` [Example 62, 6-cyano-1-(cyclopentylmethyl)-7-(5,7-dihydro-6H-pyrrolo[3,4-b]pyridin-6-yl)-4-oxo-1,4-dihydro-1,8-naphthyridine-3-carboxylic acid], the IC50 was ≤ 1000 nM.

Turning to `COCCNc1ccc(-n2cc(C(=O)O)c(=O)c3cc(C#N)c(N4Cc5cccnc5C4)cc32)cn1` [Example 50, 6-cyano-7-(5,7-dihydro-6H-pyrrolo[3,4-b]pyridin-6-yl)-1-(6-((2-methoxyethyl)amino)pyridin-3-yl)-4-oxo-1,4-dihydroquinoline-3-carboxylic acid], the IC50 was ≤ 1000 nM. As for `Cc1cc(NC(=O)OC(C)(C)C)ncc1-n1cc(C(=O)O)c(=O)c2cc(Cl)c(N3CCc4cnccc4C3)nc21` [Example 196, 1-(6-((tert-butoxycarbonyl)amino)-4-methylpyridin-3-yl)-6-chloro-7-(3,4-dihydro-2,6-naphthyridin-2(1H)-yl)-4-oxo-1,4-dihydro-1,8-naphthyridine-3-carboxylic acid], the IC50 was ≤ 1000 nM.

As for `O=C(O)c1cn(-c2ccc(O)cc2F)c2cc(N3Cc4cccnc4C3)c(Cl)cc2c1=O` [Example 27, 6-chloro-7-(5,7-dihydro-6H-pyrrolo[3,4-b]pyridin-6-yl)-1-(2-fluoro-4-hydroxyphenyl)-4-oxo-1,4-dihydroquinoline-3-carboxylic acid], the IC50 was ≤ 1000 nM.

For the molecule `O=C(O)c1cn(Cc2ccccn2)c2nc(N3Cc4cccnc4C3)c(Cl)cc2c1=O` [Example 65, 6-chloro-7-(5,7-dihydro-6H-pyrrolo[3,4-b]pyridin-6-yl)-4-oxo-1-(pyridin-2-ylmethyl)-1,4-dihydro-1,8-naphthyridine-3-carboxylic acid], the IC50 was ≤ 1000 nM.

Turning to `Cn1cc(Cn2cc(C(=O)O)c(=O)c3cc(Cl)c(N4Cc5cccnc5C4)cc32)cn1` [Example 124, 6-chloro-7-(5,7-dihydro-6H-pyrrolo[3,4-b]pyridin-6-yl)-1-((1-methyl-1H-pyrazol-4-yl)methyl)-4-oxo-1,4-dihydroquinoline-3-carboxylic acid], the IC50 was ≤ 1000 nM. As to `Cc1cc(N)ncc1-n1cc(C(=O)O)c(=O)c2cc(C#N)c(N3Cc4cccnc4C3)cc21` [Example 80, 1-(6-amino-4-methylpyridin-3-yl)-6-cyano-7-(5,7-dihydro-6H-pyrrolo[3,4-b]pyridin-6-yl)-4-oxo-1,4-dihydroquinoline-3-carboxylic acid], the IC50 was ≤ 1000 nM. To `N#Cc1cc2c(=O)c(C(=O)O)cn(-c3ccc(O)cc3F)c2cc1N1Cc2cccnc2C1` [Example 38, 6-cyano-7-(5,7-dihydro-6H-pyrrolo[3,4-b]pyridin-6-yl)-1-(2-fluoro-4-hydroxyphenyl)-4-oxo-1,4-dihydroquinoline-3-carboxylic acid] belongs ≤ 1000 nM; to `N#Cc1cc2c(=O)c(C(=O)O)cn(-c3cnccn3)c2cc1N1Cc2cccnc2C1` [Example 47, 6-cyano-7-(5,7-dihydro-6H-pyrrolo[3,4-b]pyridin-6-yl)-4-oxo-1-(pyrazin-2-yl)-1,4-dihydroquinoline-3-carboxylic acid], ≤ 1000 nM.

For the molecule `Nc1ccc(-n2cc(C(=O)O)c(=O)c3cc(Cl)c(N4Cc5cccnc5C4)cc32)cn1` [Example 52, 1-(6-aminopyridin-3-yl)-6-chloro-7-(5,7-dihydro-6H-pyrrolo[3,4-b]pyridin-6-yl)-4-oxo-1,4-dihydroquinoline-3-carboxylic acid], the IC50 was ≤ 1000 nM. To `O=C(O)c1cn(C2CCOCC2)c2nc(N3Cc4cccnc4C3)c(Cl)cc2c1=O` [Example 101, 6-chloro-7-(5,7-dihydro-6H-pyrrolo[3,4-b]pyridin-6-yl)-4-oxo-1-(tetrahydro-2H-pyran-4-yl)-1,4-dihydro-1,8-naphthyridine-3-carboxylic acid] belongs ≤ 1000 nM; to `CN(C)C(=O)N1CCC(Cn2cc(C(=O)O)c(=O)c3cc(Cl)c(N4Cc5cccnc5C4)cc32)CC1` [Example 129, 6-chloro-7-(5,7-dihydro-6H-pyrrolo[3,4-b]pyridin-6-yl)-1-((1-(dimethylcarbamoyl)piperidin-4-yl)methyl)-4-oxo-1,4-dihydroquinoline-3-carboxylic acid], ≤ 1000 nM. In the case of `N#Cc1cc2c(=O)c(C(=O)O)cn(-c3ccc(N4CCC4)nc3)c2cc1N1Cc2cccnc2C1` [Example 49, 1-(6-(azetidin-1-yl)pyridin-3-yl)-6-cyano-7-(5,7-dihydro-6H-pyrrolo-[3,4-b]pyridin-6-yl)-4-oxo-1,4-dihydroquinoline-3-carboxylic acid], the IC50 was ≤ 1000 nM. The figure for `O=C(O)c1cn(CC2CCC2)c2cc(N3Cc4cccnc4C3)c(Cl)cc2c1=O` [Example 33, 6-chloro-1-(cyclobutylmethyl)-7-(5,7-dihydro-6H-pyrrolo[3,4-b]pyridin-6-yl)-4-oxo-1,4-dihydroquinoline-3-carboxylic acid] is ≤ 1000 nM; for `Cc1cc(N)ncc1-n1cc(C(=O)O)c(=O)c2cc(F)c(N3CCc4ccccc4C3)cc21` [Example 181, 1-(6-amino-4-methylpyridin-3-yl)-7-(3,4-dihydroisoquinolin-2(1H)-yl)-6-fluoro-4-oxo-1,4-dihydroquinoline-3-carboxylic acid] it is ≤ 1000 nM.

Regarding `Cc1cc(N)ncc1-n1cc(C(=O)O)c(=O)c2cc(Cl)c(N3Cc4cccnc4C3)cc21` [Example 5, 1-(6-amino-4-methylpyridin-3-yl)-6-chloro-4-oxo-7-{5H,6H,7H-pyrrolo[3,4-b]pyridin-6-yl}-1,4-dihydroquinoline-3-carboxylicacid hydrochloride], the IC50 was ≤ 1000 nM.

As to `COc1ccc2c(c1)CN(c1cc3c(cc1F)c(=O)c(C(=O)O)cn3-c1ccc(O)cc1F)C2` [Example 14, 6-fluoro-1-(2-fluoro-4-hydroxyphenyl)-7-(5-methoxyisoindolin-2-yl)-4-oxo-1,4-dihydroquinoline-3-carboxylic acid], the IC50 was ≤ 1000 nM.

On to `Nc1ncc(-n2cc(C(=O)O)c(=O)c3cc(Cl)c(N4Cc5cccnc5C4)cc32)cc1F` [Example 23, 1-(6-amino-5-fluoropyridin-3-yl)-6-chloro-7-(5,7-dihydro-6H-pyrrolo-[3,4-b]pyridin-6-yl)-4-oxo-1,4-dihydroquinoline-3-carboxylic acid], for which the IC50 is ≤ 1000 nM. The figure for `COc1ccc2c(c1)CN(c1nc3c(cc1Cl)c(=O)c(C(=O)O)cn3-c1cnc(N)cc1C)C2` [Example 161, 1-(6-amino-4-methylpyridin-3-yl)-6-chloro-7-(5-methoxyisoindolin-2-yl)-4-oxo-1,4-dihydro-1,8-naphthyridine-3-carboxylic acid] is ≤ 1000 nM.
